Values quoted from earlier work as cited in publication PMC9921896 (Molecules, 2023).

Legend:
estrogenicity = conditions: cited from earlier work
[1] = cited from earlier work
[2] = cited from earlier work; remark: listed apart in the source

C=C(CC(C)(C)c1ccc(O)cc1)c1ccc(O)cc1 [MBP, 4-methyl-2,4-bis(p-hydroxyphenyl) pent-1-ene, reference compound]
estrogenicity relative to BPA (estrogenicity; metabolite formed with rat liver S9 fraction): several-thousand-fold

CC(C)(c1ccc(O)cc1)c1ccc(O[C@@H]2O[C@H](C(=O)O)[C@@H](O)[C@H](O)[C@H]2O)cc1 [BPA-based Glucuronide metabolite, reference compound]
estrogenicity (estrogenicity; BPA glucuronide): non-estrogenic

CC(C)(c1ccc(O)cc1)c1ccc(O)cc1 [BPA, Bisphenol A]
new TDI (draft opinion) ([1]; EFSA draft opinion): 0.04 ng (kg bw)^−1 day^−1 | t-TDI ([1]; set by EFSA in 2015): 4 μg (kg bw)^−1 day^−1 | highest dose level with no negative impact on the health ([2]; CLARITY-BPA core study): 25,000 μg kg bw^−1 day^−1 | lowest-observed-adverse-effect level (LOAEL) ([2]; suggested from low-dose effects): 2.5 μg (kg bw)^−1 day^−1
